Assays:
[1] = target: Prostaglandin F2-alpha receptor (Homo sapiens, UniProt P43088); assay: Binding assay (PTGFR)
[2] = target: T1, 5-hydroxytryptamine receptor 3A (Homo sapiens) (UniProt P46098); assay: 5-HT3 (h) CEREP ligand profiling; details: Compound concentration 10.0 uM
T1 sequence (whole entry): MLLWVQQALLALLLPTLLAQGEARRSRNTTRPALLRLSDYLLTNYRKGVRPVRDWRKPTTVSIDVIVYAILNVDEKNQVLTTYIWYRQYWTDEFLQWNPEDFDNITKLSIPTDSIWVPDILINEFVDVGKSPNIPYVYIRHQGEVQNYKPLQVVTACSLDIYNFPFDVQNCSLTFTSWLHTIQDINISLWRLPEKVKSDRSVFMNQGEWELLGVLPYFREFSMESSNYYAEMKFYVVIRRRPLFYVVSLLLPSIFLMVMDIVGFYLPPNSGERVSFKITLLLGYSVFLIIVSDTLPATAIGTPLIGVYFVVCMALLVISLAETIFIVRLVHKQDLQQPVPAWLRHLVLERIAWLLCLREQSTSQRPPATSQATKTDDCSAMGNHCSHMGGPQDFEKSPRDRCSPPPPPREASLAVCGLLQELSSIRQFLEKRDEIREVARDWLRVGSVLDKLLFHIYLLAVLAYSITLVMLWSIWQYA

[3] = target: 5-hydroxytryptamine receptor 7 (Homo sapiens) (UniProt P34969); assay: 5-HT7 (h) CEREP ligand profiling; details: Compound concentration 10.0 uM
[4] = target: T2, Alpha-2C adrenergic receptor (Homo sapiens) (UniProt P18825); assay: alpha 2C (h) CEREP ligand profiling; details: Compound concentration 10.0 uM
T2 sequence (whole entry): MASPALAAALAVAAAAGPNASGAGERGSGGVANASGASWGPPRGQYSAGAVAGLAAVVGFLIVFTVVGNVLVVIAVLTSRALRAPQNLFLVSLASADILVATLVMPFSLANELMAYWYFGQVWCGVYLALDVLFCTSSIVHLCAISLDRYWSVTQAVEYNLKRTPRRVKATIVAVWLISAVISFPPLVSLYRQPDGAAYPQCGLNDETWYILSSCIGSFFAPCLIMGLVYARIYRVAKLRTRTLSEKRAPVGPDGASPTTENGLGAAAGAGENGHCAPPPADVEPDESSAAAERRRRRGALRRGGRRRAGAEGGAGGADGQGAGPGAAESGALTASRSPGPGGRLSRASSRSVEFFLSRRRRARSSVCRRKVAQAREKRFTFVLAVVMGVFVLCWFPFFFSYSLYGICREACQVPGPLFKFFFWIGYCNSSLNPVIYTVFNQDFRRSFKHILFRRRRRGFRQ

CYP2C19 = CYP2C19 (Homo sapiens, UniProt P33261); assay: CYP2C19 inhibition CEREP ligand profiling; details: compound concentration 10 uM
[5] = target: Sodium-dependent dopamine transporter (Homo sapiens) (UniProt Q01959); assay: DA transporter (h) CEREP ligand profiling; details: Compound concentration 10.0 uM
[6] = target: Histamine H2 receptor (Homo sapiens) (UniProt P25021); assay: H2 (h) CEREP ligand profiling; details: Compound concentration 10.0 uM
Sequence of Histamine H2 receptor (Homo sapiens) (P25021 whole entry): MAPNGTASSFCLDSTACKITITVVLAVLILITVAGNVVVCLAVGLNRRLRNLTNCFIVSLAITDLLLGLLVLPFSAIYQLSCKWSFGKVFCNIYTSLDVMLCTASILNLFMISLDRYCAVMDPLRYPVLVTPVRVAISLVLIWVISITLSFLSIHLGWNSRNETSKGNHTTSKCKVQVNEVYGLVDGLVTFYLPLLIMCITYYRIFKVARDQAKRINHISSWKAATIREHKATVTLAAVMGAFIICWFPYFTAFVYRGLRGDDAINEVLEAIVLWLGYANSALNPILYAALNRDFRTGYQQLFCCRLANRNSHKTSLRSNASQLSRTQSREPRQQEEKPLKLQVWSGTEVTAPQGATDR

[7] = target: T3, Muscarinic acetylcholine receptor M2 (Homo sapiens) (UniProt P08172); assay: M2 (h) CEREP ligand profiling; details: Compound concentration 10.0 uM
T3 sequence (whole entry): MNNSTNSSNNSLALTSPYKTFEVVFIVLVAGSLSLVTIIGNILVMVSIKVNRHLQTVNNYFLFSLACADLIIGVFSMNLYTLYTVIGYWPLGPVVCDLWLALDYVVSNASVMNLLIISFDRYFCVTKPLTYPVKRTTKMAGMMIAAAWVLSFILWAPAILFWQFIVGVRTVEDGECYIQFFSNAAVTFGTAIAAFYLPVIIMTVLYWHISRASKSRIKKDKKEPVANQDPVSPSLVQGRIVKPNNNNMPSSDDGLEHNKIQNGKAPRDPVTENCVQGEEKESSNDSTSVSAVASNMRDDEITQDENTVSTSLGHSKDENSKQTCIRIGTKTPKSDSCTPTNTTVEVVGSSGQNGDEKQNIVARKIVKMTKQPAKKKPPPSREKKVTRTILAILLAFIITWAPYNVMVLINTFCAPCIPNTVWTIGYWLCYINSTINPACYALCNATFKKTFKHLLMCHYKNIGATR

[8] = target: Dual 3',5'-cyclic-AMP and -GMP phosphodiesterase 11A (Homo sapiens) (UniProt Q9HCR9); assay: PDE11 (h) CEREP ligand profiling; details: Compound concentration 10.0 uM
[9] = target: Phosphodiesterase 4 (Rattus norvegicus) (UniProt P14270+P14646+P14644+P54748); assay: Rolipram CEREP ligand profiling; assay type: protein assay; details: Compound concentration 10.0 uM
[10] = target: Tyrosine-protein kinase ABL1 (Homo sapiens) (UniProt P00519); details: Compound concentration 1000.0 nM
[11] = target: Protein-tyrosine kinase 6 (Homo sapiens) (UniProt Q13882); details: Compound concentration 1000.0 nM
[12] = target: Death-associated protein kinase 2 (Homo sapiens) (UniProt Q9UIK4); details: Compound concentration 1000.0 nM
Sequence of Death-associated protein kinase 2 (Homo sapiens) (Q9UIK4 whole entry, looked up): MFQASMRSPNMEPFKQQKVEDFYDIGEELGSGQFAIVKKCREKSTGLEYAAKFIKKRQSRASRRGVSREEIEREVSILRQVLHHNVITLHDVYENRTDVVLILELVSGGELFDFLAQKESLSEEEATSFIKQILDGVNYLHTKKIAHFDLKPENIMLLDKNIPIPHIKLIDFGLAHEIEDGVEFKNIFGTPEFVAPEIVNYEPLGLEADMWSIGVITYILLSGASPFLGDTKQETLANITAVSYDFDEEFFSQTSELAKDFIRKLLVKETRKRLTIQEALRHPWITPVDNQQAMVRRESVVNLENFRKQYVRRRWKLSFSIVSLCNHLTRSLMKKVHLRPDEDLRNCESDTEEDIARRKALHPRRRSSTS

[13] = target: Cyclin-G-associated kinase (Homo sapiens) (UniProt O14976); details: Compound concentration 1000.0 nM
[14] = target: Insulin receptor (Homo sapiens) (UniProt P06213); details: Compound concentration 1000.0 nM
Sequence of Insulin receptor (Homo sapiens) (P06213 28-758 limits assumed): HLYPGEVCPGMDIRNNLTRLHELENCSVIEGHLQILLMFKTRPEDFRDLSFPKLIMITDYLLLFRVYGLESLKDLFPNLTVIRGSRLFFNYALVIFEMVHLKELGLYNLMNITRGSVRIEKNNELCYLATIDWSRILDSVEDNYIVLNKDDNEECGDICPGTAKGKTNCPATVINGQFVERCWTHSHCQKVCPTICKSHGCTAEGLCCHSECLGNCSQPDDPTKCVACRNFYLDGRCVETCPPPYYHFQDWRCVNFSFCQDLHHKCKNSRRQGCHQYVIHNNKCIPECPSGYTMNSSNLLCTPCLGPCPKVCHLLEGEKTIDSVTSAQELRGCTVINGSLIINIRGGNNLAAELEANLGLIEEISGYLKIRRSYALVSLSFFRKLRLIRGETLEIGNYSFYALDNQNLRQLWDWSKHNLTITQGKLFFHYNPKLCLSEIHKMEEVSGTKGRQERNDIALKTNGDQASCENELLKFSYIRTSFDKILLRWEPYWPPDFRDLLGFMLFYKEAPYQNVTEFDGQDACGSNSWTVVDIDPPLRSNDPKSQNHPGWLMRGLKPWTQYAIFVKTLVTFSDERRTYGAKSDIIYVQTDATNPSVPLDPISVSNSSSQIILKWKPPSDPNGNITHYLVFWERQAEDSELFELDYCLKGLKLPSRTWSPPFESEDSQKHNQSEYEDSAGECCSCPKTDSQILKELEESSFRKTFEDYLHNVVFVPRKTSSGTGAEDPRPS
Sequence of Insulin receptor (Homo sapiens) (P06213 763-1382 limits assumed): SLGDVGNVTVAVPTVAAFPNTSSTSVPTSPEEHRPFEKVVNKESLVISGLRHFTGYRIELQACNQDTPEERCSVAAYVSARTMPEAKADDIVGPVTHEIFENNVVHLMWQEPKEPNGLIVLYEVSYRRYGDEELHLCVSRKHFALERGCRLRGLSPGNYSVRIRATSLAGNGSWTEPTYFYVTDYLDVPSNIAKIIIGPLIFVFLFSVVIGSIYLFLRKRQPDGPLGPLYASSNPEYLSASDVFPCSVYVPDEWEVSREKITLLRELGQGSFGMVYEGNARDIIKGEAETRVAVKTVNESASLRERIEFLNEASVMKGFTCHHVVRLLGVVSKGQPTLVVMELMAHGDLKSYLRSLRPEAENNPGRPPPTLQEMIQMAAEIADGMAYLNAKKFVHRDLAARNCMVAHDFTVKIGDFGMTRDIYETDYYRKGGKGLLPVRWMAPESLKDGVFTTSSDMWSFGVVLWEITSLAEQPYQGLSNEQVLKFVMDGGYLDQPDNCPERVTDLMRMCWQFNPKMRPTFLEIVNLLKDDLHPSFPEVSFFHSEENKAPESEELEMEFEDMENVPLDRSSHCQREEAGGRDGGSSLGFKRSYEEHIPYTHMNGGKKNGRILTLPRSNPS

[15] = target: Serine/threonine-protein kinase LATS1 (Homo sapiens) (UniProt O95835); details: Compound concentration 1000.0 nM
[16] = target: Mitogen-activated protein kinase kinase kinase 15 (Homo sapiens) (UniProt Q6ZN16); details: Compound concentration 1000.0 nM
[17] = target: Mitogen-activated protein kinase kinase kinase 4 (Homo sapiens) (UniProt Q9Y6R4); details: Compound concentration 1000.0 nM
[18] = target: Mitogen-activated protein kinase kinase kinase 11 (Homo sapiens) (UniProt Q16584); details: Compound concentration 1000.0 nM
[19] = target: Serine/threonine-protein kinase Nek4 (Homo sapiens) (UniProt P51957); details: Compound concentration 1000.0 nM
Sequence of Serine/threonine-protein kinase Nek4 (Homo sapiens) (P51957 whole entry, looked up): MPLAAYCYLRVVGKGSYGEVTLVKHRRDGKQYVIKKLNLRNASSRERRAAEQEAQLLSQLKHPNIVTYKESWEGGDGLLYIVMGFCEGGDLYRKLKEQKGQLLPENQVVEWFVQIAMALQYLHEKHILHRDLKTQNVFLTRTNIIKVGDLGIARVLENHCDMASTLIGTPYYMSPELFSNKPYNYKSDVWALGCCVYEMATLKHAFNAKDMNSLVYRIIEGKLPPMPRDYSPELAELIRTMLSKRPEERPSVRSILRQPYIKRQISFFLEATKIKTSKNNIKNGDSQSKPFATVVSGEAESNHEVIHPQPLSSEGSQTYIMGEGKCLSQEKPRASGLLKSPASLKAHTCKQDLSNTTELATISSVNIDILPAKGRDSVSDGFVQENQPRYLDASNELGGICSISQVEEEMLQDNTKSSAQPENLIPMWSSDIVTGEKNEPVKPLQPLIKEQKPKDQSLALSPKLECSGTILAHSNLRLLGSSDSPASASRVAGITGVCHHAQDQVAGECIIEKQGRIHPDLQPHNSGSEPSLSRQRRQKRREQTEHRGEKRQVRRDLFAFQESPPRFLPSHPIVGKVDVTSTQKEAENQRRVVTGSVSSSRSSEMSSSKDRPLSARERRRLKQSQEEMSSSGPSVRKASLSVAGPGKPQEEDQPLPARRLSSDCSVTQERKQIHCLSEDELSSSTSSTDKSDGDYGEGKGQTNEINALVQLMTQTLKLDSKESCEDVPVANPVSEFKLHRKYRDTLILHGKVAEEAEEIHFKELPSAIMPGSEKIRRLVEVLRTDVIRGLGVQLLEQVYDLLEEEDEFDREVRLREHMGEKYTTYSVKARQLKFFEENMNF

[20] = target: Serine/threonine-protein kinase D1 (Homo sapiens) (UniProt Q15139); details: Compound concentration 1000.0 nM
[21] = target: Tyrosine-protein kinase SYK (Homo sapiens) (UniProt P43405); details: Compound concentration 1000.0 nM
[22] = target: Transient receptor potential cation channel subfamily M member 6 (Homo sapiens) (UniProt Q9BX84); details: Compound concentration 1000.0 nM
Sequence of Transient receptor potential cation channel subfamily M member 6 (Homo sapiens) (Q9BX84 whole entry): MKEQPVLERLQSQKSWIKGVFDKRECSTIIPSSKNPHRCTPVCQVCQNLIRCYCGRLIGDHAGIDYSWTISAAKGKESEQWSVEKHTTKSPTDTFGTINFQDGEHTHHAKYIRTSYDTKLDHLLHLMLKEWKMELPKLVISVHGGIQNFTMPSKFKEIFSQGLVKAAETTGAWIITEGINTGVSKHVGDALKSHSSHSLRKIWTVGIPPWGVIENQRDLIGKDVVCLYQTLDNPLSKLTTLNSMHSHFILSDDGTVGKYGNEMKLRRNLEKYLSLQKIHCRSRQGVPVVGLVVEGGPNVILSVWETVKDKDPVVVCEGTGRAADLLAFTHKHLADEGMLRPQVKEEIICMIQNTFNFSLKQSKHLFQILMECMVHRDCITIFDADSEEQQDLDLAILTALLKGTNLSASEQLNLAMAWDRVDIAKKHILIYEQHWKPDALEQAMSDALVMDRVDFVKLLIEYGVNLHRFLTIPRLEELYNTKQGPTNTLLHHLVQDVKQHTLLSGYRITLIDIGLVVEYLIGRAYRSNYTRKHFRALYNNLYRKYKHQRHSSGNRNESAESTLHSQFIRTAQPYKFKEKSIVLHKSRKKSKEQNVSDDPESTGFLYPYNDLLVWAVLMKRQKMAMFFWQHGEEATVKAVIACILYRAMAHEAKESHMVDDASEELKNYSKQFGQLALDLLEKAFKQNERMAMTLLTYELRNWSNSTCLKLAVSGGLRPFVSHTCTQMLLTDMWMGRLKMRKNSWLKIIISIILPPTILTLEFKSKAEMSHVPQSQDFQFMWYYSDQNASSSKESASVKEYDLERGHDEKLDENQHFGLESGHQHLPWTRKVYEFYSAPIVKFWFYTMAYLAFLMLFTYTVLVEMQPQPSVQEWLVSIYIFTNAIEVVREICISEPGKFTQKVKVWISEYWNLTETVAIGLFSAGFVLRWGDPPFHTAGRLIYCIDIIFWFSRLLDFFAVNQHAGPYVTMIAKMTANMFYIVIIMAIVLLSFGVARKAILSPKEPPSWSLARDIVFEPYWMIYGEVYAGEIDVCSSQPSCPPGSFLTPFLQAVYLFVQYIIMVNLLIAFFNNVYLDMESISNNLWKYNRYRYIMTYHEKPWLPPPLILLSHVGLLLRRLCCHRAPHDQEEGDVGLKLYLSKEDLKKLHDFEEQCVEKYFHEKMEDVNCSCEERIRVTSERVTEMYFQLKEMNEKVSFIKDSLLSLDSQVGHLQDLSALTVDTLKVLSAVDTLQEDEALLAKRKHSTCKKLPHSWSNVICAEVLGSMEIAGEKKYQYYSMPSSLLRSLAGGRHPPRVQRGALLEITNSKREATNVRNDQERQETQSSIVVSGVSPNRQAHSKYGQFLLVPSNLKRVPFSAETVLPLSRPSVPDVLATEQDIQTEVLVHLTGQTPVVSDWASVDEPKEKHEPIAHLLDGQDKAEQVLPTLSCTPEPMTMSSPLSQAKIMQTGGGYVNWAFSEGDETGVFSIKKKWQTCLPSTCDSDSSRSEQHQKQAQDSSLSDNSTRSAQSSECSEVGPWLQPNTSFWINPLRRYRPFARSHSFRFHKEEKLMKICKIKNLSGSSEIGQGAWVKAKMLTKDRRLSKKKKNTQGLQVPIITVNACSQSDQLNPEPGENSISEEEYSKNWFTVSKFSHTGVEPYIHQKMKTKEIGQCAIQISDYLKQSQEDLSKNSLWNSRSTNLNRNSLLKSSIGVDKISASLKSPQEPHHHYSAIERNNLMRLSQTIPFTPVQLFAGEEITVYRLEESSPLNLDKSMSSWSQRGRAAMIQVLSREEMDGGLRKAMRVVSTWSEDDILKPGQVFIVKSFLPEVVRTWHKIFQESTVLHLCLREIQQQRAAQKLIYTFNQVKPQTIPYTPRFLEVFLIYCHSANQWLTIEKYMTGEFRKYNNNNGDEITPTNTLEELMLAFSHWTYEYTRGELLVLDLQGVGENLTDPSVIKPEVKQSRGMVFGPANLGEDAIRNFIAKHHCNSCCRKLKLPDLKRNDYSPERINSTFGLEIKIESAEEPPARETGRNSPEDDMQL

[23] = target: Serine/threonine-protein kinase WNK1 (Homo sapiens) (UniProt Q9H4A3); details: Compound concentration 1000.0 nM
[24] = target: Serine/threonine-protein kinase WNK2 (Homo sapiens) (UniProt Q9Y3S1); details: Compound concentration 1000.0 nM
[25] = target: 5-hydroxytryptamine receptor 5A (Homo sapiens) (UniProt P47898); details: Compound concentration 10.0 uM
[26] = target: Histamine H1 receptor (Homo sapiens) (UniProt P35367); details: Compound concentration 10.0 uM

COc1ccc2cc(OCC3(C(=O)O)CN(C(=O)c4ccc(F)cc4)C3)ccc2c1 [PF-04418948]
Ki [1]: > 10 µM (not active) | inhibition [2]: -6% | inhibition [3]: -2% | inhibition [4]: 4% | inhibition at 10 µM (CYP2C19): 5% (not active) | inhibition [5]: 11% | inhibition [6]: 3% | inhibition [7]: 1% | inhibition [8]: 14% | inhibition [9]: 3% | residual activity [10]: 78% | residual activity [11]: 99% | residual activity [12]: 98% | residual activity [13]: 88% | residual activity [14]: 93% | residual activity [15]: 87% | residual activity [16]: 94% | residual activity [17]: 65% | residual activity [18]: 79% | residual activity [19]: 94% | residual activity [20]: 96% | residual activity [21]: 64% | residual activity [22]: 98% | residual activity [23]: 84% | residual activity [24]: 84% | inhibition [25]: -8.97%

O=C(c1ccc(F)cc1)N1CC(COc2ccc(Br)cc2)(C(=O)O)C1 [PF-04475866]
inhibition [26]: -4.38%
